One assay has as its target T1, Siglec-4 WT CHO cells (Homo sapiens, UniProt P20916).
T1 construct: expressed in transfected cells
T1 sequence (P20916 20-626): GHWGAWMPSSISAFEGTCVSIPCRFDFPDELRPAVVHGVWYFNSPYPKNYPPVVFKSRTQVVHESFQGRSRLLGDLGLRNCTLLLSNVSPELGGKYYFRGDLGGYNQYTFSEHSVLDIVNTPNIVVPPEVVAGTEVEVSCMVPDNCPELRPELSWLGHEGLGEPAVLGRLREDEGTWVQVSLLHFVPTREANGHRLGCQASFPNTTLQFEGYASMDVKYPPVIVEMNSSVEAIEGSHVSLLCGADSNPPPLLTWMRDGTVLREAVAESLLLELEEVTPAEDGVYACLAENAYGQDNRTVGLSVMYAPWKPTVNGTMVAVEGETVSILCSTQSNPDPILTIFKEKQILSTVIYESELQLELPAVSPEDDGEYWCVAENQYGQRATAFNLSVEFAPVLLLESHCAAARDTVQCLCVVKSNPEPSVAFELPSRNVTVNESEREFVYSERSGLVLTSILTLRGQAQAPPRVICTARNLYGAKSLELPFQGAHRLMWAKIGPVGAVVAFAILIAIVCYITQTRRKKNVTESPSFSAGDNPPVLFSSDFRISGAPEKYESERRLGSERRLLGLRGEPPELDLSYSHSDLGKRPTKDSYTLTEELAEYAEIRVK
The experiment in a line: Cell assay (liposome/EV binding, flow cytometry). The format is cell-based. To be noted: Sig-4 WT†; † after treatment of cells with neuraminidase; 3 mol% ganglioside liposomes; replicates. As for the experimental part:
Stock lipids (DSPC, Cholesterol, PEG45–DSPE) solutions were prepared by solvating the lipids in chloroform. An appropriate volume of each lipid solution was transferred to a glass test tube to reach the desired mol% of the component. The chloroform was then removed under N2 gas to yield a lipid thin film. Once dry, 100 µL of DMSO was added to the lipid-containing test tube and then the functional lipids (ganglioside, AF647–PEG45–DSPE, Siglec ligand–PEG45–DSPE, pHrodo–PEG45–DSPE, NGL) was added from their respect DMSO stock solution. The lipid mixture was then stored at −80 °C until completely frozen at which point excess DMSO was removed via lyophilization. Dry lipids were then stored at −80 °C until they were extruded. Lipid suppliers can be found in Supplementary Table 4.
Dry lipids were then hydrated in 1 mL of PBS. The lipids were then sonicated in a bath sonicator in a cycle of 1 min on, 5 min off for a total of five cycles. Liposomes were then extruded using an Avanti mini extruder first using an 800 nm filter and then a 100 nm filter yielding liposomes that were 130 ± 35 nm (Supplementary Table 5) measured using a Malvern Panalytical Zetasizer Nano S. Liposomes were stored at 4 °C.
200,000 cells/well were plated into a 96-well U-bottom microplate and centrifuged at 300 × g for 5 min. The cells were then resuspended in 50 µL of 50 µM liposome/50 µg/mL (protein concentration) of EV solution in DMEM F12 5% FBS and incubated at 37 °C for 30 min. Excess liposomes were then removed via centrifuged at 300 × g for 5 min followed by washing the cells with FACS solution. The cells were then resuspended in (1:250 V/V) anti-Siglec-flow buffer (1% V/V FBS, 500 µM, EDTA Hank’s Balanced Salt Solution pH 7.4), solution and left to rest on ice for 30 min. The cells were then centrifuged again at 300 × g for 5 min and the cells were resuspended in FACS buffer solution and were then ready for analysis by flow cytometry. Information regarding antibody clone, catalog number supplier, label isotype, and dilution can be found in Supplementary Table 6. The Siglec-positive cells were gated on for liposome-binding analysis (Supplementary Fig. 1b).
Flow cytometry measurements were collected on a 5-laser Fortessa X-20 (BD Bioscience). All the resulting data were analyzed using FlowJo (10.5.3) software (BD Biosciences).
Cells were harvested and resuspended in complete media with either Neuraminidase A or S. The cells were then placed in a 37 °C shaking incubator for 1 h. The cells were then washed with complete media and then the liposome binding assay was performed as described above.
A general note: A flow cytometer gives signals particle by particle.

A further assay addresses T2, CD22 WT CHO cells (Homo sapiens, UniProt P20273).
T2 construct: expressed in transfected cells
T2 sequence (P20273 20-847): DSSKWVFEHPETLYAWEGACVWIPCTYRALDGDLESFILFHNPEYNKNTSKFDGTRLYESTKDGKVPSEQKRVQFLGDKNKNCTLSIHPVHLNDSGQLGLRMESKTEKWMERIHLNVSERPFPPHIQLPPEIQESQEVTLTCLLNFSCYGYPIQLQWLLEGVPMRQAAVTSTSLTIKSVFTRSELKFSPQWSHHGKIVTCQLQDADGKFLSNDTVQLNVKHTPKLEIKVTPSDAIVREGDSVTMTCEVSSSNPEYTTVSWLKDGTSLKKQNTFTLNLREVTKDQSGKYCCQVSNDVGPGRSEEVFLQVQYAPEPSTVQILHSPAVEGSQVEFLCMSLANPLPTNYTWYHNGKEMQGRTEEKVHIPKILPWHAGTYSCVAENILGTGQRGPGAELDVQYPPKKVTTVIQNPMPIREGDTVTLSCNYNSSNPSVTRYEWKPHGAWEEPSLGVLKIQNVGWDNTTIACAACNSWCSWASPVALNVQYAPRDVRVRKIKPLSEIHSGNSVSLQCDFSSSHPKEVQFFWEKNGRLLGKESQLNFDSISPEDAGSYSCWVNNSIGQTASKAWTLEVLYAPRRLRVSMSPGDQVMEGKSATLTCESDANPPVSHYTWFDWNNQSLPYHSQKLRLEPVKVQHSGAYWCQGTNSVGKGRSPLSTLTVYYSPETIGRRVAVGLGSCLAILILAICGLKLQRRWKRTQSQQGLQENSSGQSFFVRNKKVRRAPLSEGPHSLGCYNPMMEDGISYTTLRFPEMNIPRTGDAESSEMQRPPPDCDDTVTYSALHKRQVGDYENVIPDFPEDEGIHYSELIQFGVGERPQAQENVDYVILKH
The experiment in a line: Cell assay (liposome/EV binding, flow cytometry). The class given is cell-based. To be noted: 3 mol% ganglioside liposomes, replicates. The procedure, abridged:
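CHO cells expressing the indicated Siglec (wild-type or R-to-A mutant) were incubated 30 min at 37 °C with 50 µM fluorescent DSPC/cholesterol/PEG-DSPE liposomes (~130 nm, Siglec ligand-bearing) or 50 µg/mL EVs in DMEM F12 5% FBS. After washing and anti-Siglec staining on ice, binding was measured by flow cytometry on Siglec-positive gated cells.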

“And” between values parts separate entries of the source, which are not always exact repeats. Equal entries are not always repeated.

From publication PMC10122656, “Siglec-6 mediates the uptake of extracellular vesicles through a noncanonical glycolipid binding pocket” (Nature Communications, 2023) come the findings set out here.

On to GD1b, for which the “log10(MFI AF647) of GLL relative to log10(MFI AF647) of the same GLL against UT CHO cells (Fig. 2a)” value on Siglec-4 WT CHO cells was 0.9 and 0.93 and 0.96 and 0.92; on CD22 WT CHO cells, -0.04 and -0.05 and -0.06 (2×).
For GM1, the “log10(MFI AF647) of GLL relative to log10(MFI AF647) of the same GLL against UT CHO cells (Fig. 2a)” value was 0.57 (2×) and 0.53 and 0.49 on Siglec-4 WT CHO cells; -0.03 (2×) and -0.04 and -0.06 on CD22 WT CHO cells.
Take GD3: the “log10(MFI AF647) of GLL relative to log10(MFI AF647) of the same GLL against UT CHO cells (Fig. 2a)” value at Siglec-4 WT CHO cells was 0.51 (2×) and 0.52 and 0.5; on CD22 WT CHO cells, 0.09 and 0.07 and 0.1 (2×).
On to GM3, for which the “log10(MFI AF647) of GLL relative to log10(MFI AF647) of the same GLL against UT CHO cells (Fig. 2a)” value on Siglec-4 WT CHO cells was -0.11 (2×) and -0.14 and -0.2; on CD22 WT CHO cells, -0.16 and -0.15 (3×).
As to GM2, the “log10(MFI AF647) of GLL relative to log10(MFI AF647) of the same GLL against UT CHO cells (Fig. 2a)” value on Siglec-4 WT CHO cells was 0.08 (2×) and -0.03 and -0.04; at CD22 WT CHO cells it was 0.01 (3×) and 0.
As for GM4, the “log10(MFI AF647) of GLL relative to log10(MFI AF647) of the same GLL against UT CHO cells (Fig. 2a)” value is -0.3 and -0.1 and -0.11 and -0.09 at Siglec-4 WT CHO cells; 0.05 (2×) and 0.06 and 0.07 on CD22 WT CHO cells.
As to GQ1b, the “log10(MFI AF647) of GLL relative to log10(MFI AF647) of the same GLL against UT CHO cells (Fig. 2a)” value on Siglec-4 WT CHO cells is 0.13 and 0.12 and 0.1 and 0.11; at CD22 WT CHO cells, -0.05 (3×) and -0.04.
On to GD1a, for which the “log10(MFI AF647) of GLL relative to log10(MFI AF647) of the same GLL against UT CHO cells (Fig. 2a)” value on Siglec-4 WT CHO cells was 1.02 and 0.9 and 0.95 and 0.88; at CD22 WT CHO cells it was 0.06 (2×) and 0.03 and 0.05.
On to GT1b, for which the “log10(MFI AF647) of GLL relative to log10(MFI AF647) of the same GLL against UT CHO cells (Fig. 2a)” value was 1.15 and 1 and 1.11 and 1.1 on Siglec-4 WT CHO cells; 0.06 (2×) and 0.04 and 0.05 at CD22 WT CHO cells.
